# Measured values published in US10030044B2, “Nucleotides for the treatment of liver cancer” (IDENIX PHARMACEUTICALS LLC, priority 2013, dated 2018).
# Tests used:
# [1] = tested on: HepG2 cell line; test: In Vitro Inhibition of Hep G2 Hepatocytes (CellTiter-Glo, 72 hr); assay type: cell-based; conditions: HepG2 cells, 72 hr exposure
# Method: Cells were grown in RPMI-1640 supplemented with L-glutamine and 10% FBS: HepG2.
# 96 well plates of HepG2 cell line were seeded with the optimized number of cells per well in a total volume of 50 μL per well. The plates were left overnight. Some wells were seeded with 100 μL of media for media control. The following day, cells were exposed to test compounds. At same time as drug exposure, a CTG assay was conducted on 1st plate for the 0 hr count.
# 2× stocks of each compound in media were prepared for dosing, as follows:
# 50 μL of above 2× stocks were added to cells and medium already on plate to give final concentrations. 50 μL media were added to cell control wells, and 50 μL of mix added to vehicle control wells. 10 μM Dox was added to appropriate wells. Cells exposed to test compounds were incubated at 37° C. for 72 hr followed by a CTG assay.
# At the end of the 72 hr exposure period, plates were removed for a CellTiter-Glo (CTG) assay from a 37° C., 5% CO2 incubator and placed on the bench at room temperature for 30 mins. 100 μL of CellTiter-Glo reagent was added and mixed for 2 mins, followed by a further 10 min incubation at room temperature. Luminescence was recorded using Synergy 4.0.
# [2] = Mouse liver pharmacokinetics (liver triphosphate levels) following a single oral dose; assay type: in vivo, mice; conditions: for Fold change Mouse Liver GemC TP compared to Gemcitabine / Fold change Mouse Liver GemC TP produced compared to GemU TP: single oral dose, calculated from Table 2 data
# Method: A single oral dose of test compound in PEG 200 (dose volume 5 mL/kg) was administered to C57BL/6 male mice. Five untreated animals were used for the collection of control plasma and liver. Terminal plasma and liver samples were collected from three animals per time point at 1, 2, 4, 12, and 24 hours post dose. Liver specimens were collected from all animals immediately after the incision. Freezing forceps stored in liquid nitrogen were used to freeze the liver before excision. […]
# Liver samples were analyzed for corresponding active triphosphate species by LC-MS/MS. Triphosphate levels were assayed by homogenizing (on ice) a known weight of mouse liver with 4× volume of 0.95 M trichloroacetic acid (TCA). Internal standard solution was added to the homogenate followed by neutralization with 20% ammonium hydroxide solution and addition of 500 μL 1% formic acid. The tissue samples were extracted by weak anion exchange solid phase extraction (SPE). Post extraction, the eluates were evaporated under nitrogen, followed by reconstitution before injection onto the LC-MS/MS system. The samples were chromatographed on a Luna NH2 column using a gradient system of ammonium acetate (1 mM to 20 mM and pH 8.0 to pH 10.0) in water and acetonitrile (70:30). The analyte was detected and quantified by tandem mass spectrometry in positive ion mode on an API4000 equipped with a Turbo Ionspray® interface. The calibration range was 10 to 10000 pmol/mL in mouse liver homogenate (50 to 50000 pmol/g of mouse liver).
Structure (SMILES),IC50 ([1]; Homo sapiens) [µM],Fold change Mouse Liver GemC TP compared to Gemcitabine [2],Fold change Mouse Liver GemC TP produced compared to GemU TP [2],also measured
"CC(C)OC(=O)[C@@H](C)NP(=O)(OC[C@H]1O[C@@H](n2ccc(N)nc2=O)C(F)(F)[C@@H]1O)Oc1ccccc1 (single isomer, unassigned) [Compound 4, Diastereomer 1]",> 10,++++++ (100 < ++++++),++++ (25 < ++++ ≤ 50),"Clast ([2]; analyte GemU TP in mouse liver, single oral dose 182 mg/kg in PEG 200, 182 mg/kg): +++ (5,000 < +++ ≤ 15,000)"
"CC(C)OC(=O)[C@@H](C)NP(=O)(OC[C@H]1O[C@@H](n2ccc(N)nc2=O)C(F)(F)[C@@H]1O)Oc1ccccc1 (single isomer, unassigned) [Compound 4, Diastereomer 2]",–,++ (5 < ++ ≤ 10),+++ (10 < +++ ≤ 25),IC50 [1]: > 10 µM
"C[C@H](NP(=O)(OC[C@H]1O[C@@H](n2ccc(N)nc2=O)C(F)(F)[C@@H]1O)Oc1ccccc1)C(=O)OCc1ccccc1 (single isomer, unassigned) [drawing 124]",1 to 10,–,–,Fold change Mouse Liver GemC TP compared to Gemcitabine ([2]; listed as drawing 131): + (+ ≤ 5); Fold change Mouse Liver GemC TP produced compared to GemU TP ([2]; listed as drawing 131): + (+ ≤ 5)
"C[C@H](NP(=O)(OC[C@H]1O[C@@H](n2ccc(N)nc2=O)C(F)(F)[C@@H]1O)Oc1ccccc1)C(=O)OCc1ccccc1 (single isomer, unassigned) [drawing 127]",–,–,–,Fold change Mouse Liver GemC TP compared to Gemcitabine ([2]; listed as drawing 130): ++++ (25 < ++++ ≤ 50); Fold change Mouse Liver GemC TP produced compared to GemU TP ([2]; listed as drawing 130): +++ (10 < +++ ≤ 25)
"Nc1ccn([C@@H]2O[C@H](CO)[C@@H](O)C2(F)F)c(=O)n1 [Gemcitabine, gemcitabine]",–,–,+ (+ ≤ 5),–
Nc1ccn([C@@H]2O[C@H](CO)[C@@H](O)C2(F)F)c(=O)n1 [drawing 125],≤ 0.01,–,–,–
